From ChEMBL document CHEMBL1143210, “2-Substituted 4-, 5-, and 6-[(1E)-3-oxo-3-phenylprop-1-en-1-yl]pyridazin-3(2H)-ones and 2-substituted 4,5-bis[(1E)-3-oxo-3-phenylprop-1-en-1-yl]pyridazin-3(2H)-ones as potent platelet aggregation inhibitors: design, synthesis, and SAR studies” (Bioorg Med Chem Lett, 2008)

Experiments:
Blood [1] = assay: Inhibition of thrombin-induced platelet aggregation in human blood by turbidimetric method; type: functional, tissue-based
Blood [2] = assay: Inhibition of thrombin-induced platelet aggregation in human blood at 100 uM by turbidimetric method; type: functional

Compound | IC50 (Blood [1]) [µM] | inhibition at 100 µM (Blood [2]) [%]
O=C(/C=C/c1ccnn(-c2ccccc2)c1=O)c1ccccc1 | 17.6 | 
Cn1nc(/C=C/C(=O)c2ccccc2)ccc1=O | 13.4 | 
O=C(/C=C/c1ccccc1)c1ccccc1 [CHALCONE] | 163 | 
O=C(/C=C/c1ccc(=O)n(Cc2ccccc2)n1)c1ccccc1 | 60 | 
O=C1C(CC[S+]([O-])c2ccccc2)C(=O)N(c2ccccc2)N1c1ccccc1 (centres undefined) [SULFINPYRAZONE] | 509 | 
O=C(/C=C/c1ccnn(Cc2ccccc2)c1=O)c1ccccc1 |  | 40
Cn1nccc(/C=C/C(=O)c2ccccc2)c1=O | 37.1 | 
Cn1ncc(/C=C/C(=O)c2ccccc2)cc1=O | 15.7 | 

The remaining compounds from weak to strong by IC50 (Blood [1]), led by results:

IC50 (Blood [1]) [µM] | Compound | inhibition at 100 µM (Blood [2]) [%]
12 | O=C(/C=C/c1ccc(=O)n(-c2ccccc2)n1)c1ccccc1 | 
6.15 | CN1CC(/C=C/C(=O)c2ccccc2)=C(/C=C/C(=O)c2ccccc2)C=N1 | 
4.7 | Cc1[nH]c(=O)c(C#N)cc1-c1ccncc1 [MILRINONE] | 
4.2 | O=C(/C=C/c1cnn(Cc2ccccc2)c(=O)c1)c1ccccc1 | 
3.3 | O=C(/C=C/c1cnn(-c2ccccc2)c(=O)c1)c1ccccc1 | 
1.98 | O=C(/C=C/C1=C(/C=C/C(=O)c2ccccc2)CN(c2ccccc2)N=C1)c1ccccc1 | 
